ChEMBL document CHEMBL3046162, “Design, synthesis and evaluation of aminobenzophenone derivatives containing nitrogen mustard moiety as potential central nervous system antitumor agent” (Med Chem Res, 2013)
Values after ≈ are worked out from the molar mass of the structure shown.

Legend:
COLO 205 = experiment: Cytotoxicity against human COLO205 cells after 72 hrs by MTT assay; format: functional, cell-based; conditions: COLO 205, 72 h
IMR-32 = experiment: Cytotoxicity against human IMR32 cells after 72 hrs by MTT assay; format: functional, cell-based; conditions: IMR-32, 72 h
[1] = Alkylating activity of the compound in aqueous acetone solution assessed as half life of compound-NBP adduct formation after 30 mins by UV-Vis spectrophotometric analysis; format: physicochemical; conditions: buffer, 0.5 h
[2] = Cytotoxicity against human U87 cells after 72 hrs by MTT assay; format: functional, cell-based, U-87MG ATCC; conditions: U-87 MG
A549 = experiment: Cytotoxicity against human A549 cells after 72 hrs by MTT assay; format: functional, cell-based; conditions: A549, 72 h

| Structure (SMILES) | IC50 (COLO 205) | IC50 (IMR-32) | t1/2 [1] | IC50 [2] | IC50 (A549) |
| --- | --- | --- | --- | --- | --- |
| O=C(CN(CCCl)CCCl)Nc1ccc(Cl)cc1C(=O)c1ccccc1 | 52.3 mg/L (≈ 126 µM) | 29.4 mg/L (≈ 71 µM) | 13.3 min | 29 mg/L (≈ 70.1 µM) | 37.1 mg/L (≈ 89.7 µM) |
| O=C(CN(CCCl)CCCl)Nc1ccc(Cl)cc1C(=O)c1ccccc1Cl | 32.6 mg/L (≈ 72.7 µM) | 30.8 mg/L (≈ 68.8 µM) | 10.3 min | 24.5 mg/L (≈ 54.7 µM) | 34.6 mg/L (≈ 77.3 µM) |
| O=C(CN(CCCl)CCCl)Nc1ccc(Cl)cc1C(=O)c1ccc(Cl)cc1 | 28.7 mg/L (≈ 64 µM) | 31.1 mg/L (≈ 69.5 µM) | 8.9 min | 27.1 mg/L (≈ 60.5 µM) | 37.3 mg/L (≈ 83.3 µM) |
| O=C(CN(CCCl)CCCl)Nc1ccc([N+](=O)[O-])cc1C(=O)c1ccccc1 | 32.9 mg/L (≈ 77.5 µM) | 33.2 mg/L (≈ 78.2 µM) | 11.8 min | 29.5 mg/L (≈ 69.4 µM) | 64.8 mg/L (≈ 153 µM) |
| O=C(CN(CCCl)CCCl)Nc1ccc([N+](=O)[O-])cc1C(=O)c1ccccc1Cl | 33.4 mg/L (≈ 72.8 µM) | 31.4 mg/L (≈ 68.4 µM) | 9.5 min | 43.7 mg/L (≈ 95.4 µM) | 64.8 mg/L (≈ 141 µM) |
| O=C(CN(CCCl)CCCl)Nc1ccc([N+](=O)[O-])cc1C(=O)c1ccc(Cl)cc1 | 38.9 mg/L (≈ 84.9 µM) | 28.4 mg/L (≈ 61.9 µM) | 8.4 min | 23.3 mg/L (≈ 50.7 µM) | 36.7 mg/L (≈ 79.9 µM) |
| O=C(O)CCCc1ccc(N(CCCl)CCCl)cc1 [CHLORAMBUCIL] | 26.7 mg/L (≈ 87.7 µM) | 20.1 mg/L (≈ 66 µM) | – | 18.8 mg/L (≈ 61.9 µM) | 21.1 mg/L (≈ 69.3 µM) |
| CC(=O)O[C@@]12CO[C@@H]1C[C@H](O)[C@@]1(C)C(=O)[C@H](O)C3=C(C)[C@@H](OC(=O)[C@H](O)[C@@H](NC(=O)OC(C)(C)C)c4ccccc4)C[C@@](O)([C@@H](OC(=O)c4ccccc4)[C@H]21)C3(C)C.O.O.O [DOCETAXEL] | 30.7 mg/L | 23.7 mg/L | – | 20.7 mg/L | 27.3 mg/L |
